# Laboratory results reported in patent US20070128217A1 (priority 2003, published 2007).
# Assays:
# [1] = tested on: rabbit serum obtained by immunizing a rabbit with the SARS-CoV strain Frankfurt 1; format: binding; parameters: Binding of a rabbit serum to linear peptides / Binding of a rabbit serum to looped peptides / Rabbit serum linear peptides / Rabbit serum looped peptides / Binding of a rabbit serum to linear peptides of protein N of SARS-CoV Urbani (Rabbit serum linear peptides) / Binding of a rabbit serum to looped/cyclic peptides of protein N of SARS-CoV Urbani (Rabbit serum looped peptides): unit not given here
# [2] = tested on: control sera (pooled serum of ten healthy LUMC hospital workers; commercial negative donor pooled serum from the Dutch bloodbank); format: binding, human; parameters: Binding of Control serum LUMC to linear peptides / Binding of Control serum Blood-bank to linear peptides / Binding of Control serum LUMC to looped peptides / Binding of Control Serum Blood-Bank to Looped peptides / Binding of Control serum LUMC to linear peptides of the protein M of SARS-CoV Urbani / Binding of Control serum Blood-bank to linear peptides of the protein M of SARS-CoV Urbani / Binding of Control serum LUMC to looped peptides of the protein M of SARS-CoV Urbani / Binding of Control Serum Blood-Bank to Looped peptides of the protein M of SARS-CoV Urbani: unit not given here
# [3] = tested on: antibodies in sera from SARS patients (sera 1a, 1b, 2, 6, 37, 62, London, SARS-yellow, SARS-green); format: binding, human; parameters: Binding of serum 6 to linear peptides of protein X1 of SARS-CoV Urbani / Binding of serum 37 to linear peptides of protein X1 of SARS-CoV Urbani / Binding of serum 6 to looped/cyclic peptide (PEPSCAN-ELISA) / Binding of serum 37 to looped/cyclic peptide (PEPSCAN-ELISA) / Binding of serum 37 to looped/cyclic peptides of protein X1 of SARS-CoV Urbani / Binding of serum 6 to linear peptides of protein X2 / Binding of serum 37 to linear peptides of protein X2 / Binding of serum 37 to looped/cyclic peptides of protein X2 of SARS-CoV Urbani / Binding of serum 6 to linear peptides of protein M of SARS-CoV Urbani / Binding of serum 37 to linear peptides of protein M of SARS-CoV Urbani / Binding of serum 6 to looped/cyclic peptides of protein M of SARS-CoV Urbani / Binding of serum 37 to looped/cyclic peptides of protein M of SARS-CoV Urbani / Binding of serum 6 to linear peptides of protein X3 of SARS-CoV Urbani / Binding of serum 37 to linear peptides of protein X3 of SARS-CoV Urbani / Binding of serum 37 to looped/cyclic peptides of protein X3 of SARS-CoV Urbani / Binding of serum 6 to linear peptides of protein X4 of SARS-CoV Urbani / Binding of serum 37 to linear peptides of protein X4 of SARS-CoV Urbani / Binding of serum 37 to looped/cyclic peptides of protein X4 of SARS-CoV Urbani / Binding of serum 6 to linear peptides of protein X5 of SARS-CoV Urbani / Binding of serum 37 to linear peptides of protein X5 of SARS-CoV Urbani / Binding of serum 37 to looped/cyclic peptides of protein X5 of SARS-CoV Urbani / Binding of serum 6 to linear peptides of protein N of SARS-CoV Urbani / Binding of serum 37 to linear peptides of protein N of SARS-CoV Urbani / Binding of serum 6 to linear peptide (PEPSCAN-ELISA) / Binding of serum 1a to looped/cyclic peptides of protein N of SARS-CoV Urbani / Binding of serum 1b to looped/cyclic peptides of protein N of SARS-CoV Urbani / Binding of serum 2 to looped/cyclic peptides of protein N of SARS-CoV Urbani / Binding of serum 6 to looped/cyclic peptides of protein N of SARS-CoV Urbani / Binding of serum 37 to looped/cyclic peptides of protein N of SARS-CoV Urbani / Binding of serum 62 to looped/cyclic peptides of protein N of SARS-CoV Urbani / Binding of serum London to looped/cyclic peptides of protein N of SARS-CoV Urbani / Binding of serum SARS-green to looped/cyclic peptides of protein N of SARS-CoV Urbani: unit not given here
sequence,measurement,setting,value
CRIIMRCWLCWKCKS,Binding of a rabbit serum to linear peptides,[1],0.1
same,Binding of a rabbit serum to looped peptides,[1],0.7
same,Binding of Control Serum Blood-Bank to Looped peptides,[2],0.7
same,Binding of Control serum Blood-bank to linear peptides,[2],0.4
same,Binding of Control serum LUMC to linear peptides,[2],0.3
same,Binding of Control serum LUMC to looped peptides,[2],0.7
same,Binding of serum 1a to looped/cyclic peptide (PEPSCAN-ELISA),[3],0.5
same,Binding of serum 1b to looped/cyclic peptide (PEPSCAN-ELISA),[3],0.4
same,Binding of serum 2 to looped/cyclic peptide (PEPSCAN-ELISA),[3],0.5
same,Binding of serum 6 to looped/cyclic peptide (PEPSCAN-ELISA),[3],0.5
same,Binding of serum 37 to looped/cyclic peptide (PEPSCAN-ELISA),[3],0.6
same,Binding of serum 62 to looped/cyclic peptide (PEPSCAN-ELISA),[3],0.6
same,Binding of serum London to looped/cyclic peptide (PEPSCAN-ELISA),[3],0.4
same,Binding of serum SARS-green to looped/cyclic peptide (PEPSCAN-ELISA),[3],0.2
same,Binding of serum SARS-yellow to looped/cyclic peptide (PEPSCAN-ELISA),[3],0.4
same,"Recognition of the peptide by sera of SARS-CoV infected individuals, and form (linear, looped/cyclic) in which it is recognized",[3],recognized in linear form
TLVLKMLHSSSLTSL,Binding of a rabbit serum to linear peptides,[1],0.2
same,Binding of a rabbit serum to looped peptides,[1],0.4
same,Binding of Control Serum Blood-Bank to Looped peptides,[2],0.9
same,Binding of Control serum Blood-bank to linear peptides,[2],0.9
same,Binding of Control serum LUMC to linear peptides,[2],0.5
same,Binding of Control serum LUMC to looped peptides,[2],0.7
same,Binding of serum 1a to linear peptides of protein X2,[3],0.7
same,Binding of serum 1a to looped/cyclic peptides of protein X2 of SARS-CoV Urbani,[3],0.7
same,Binding of serum 1b to linear peptides of protein X2,[3],0.5
same,Binding of serum 1b to looped/cyclic peptides of protein X2 of SARS-CoV Urbani,[3],0.6
same,Binding of serum 2 to linear peptides of protein X2,[3],0.4
same,Binding of serum 2 to looped/cyclic peptides of protein X2 of SARS-CoV Urbani,[3],0.5
same,Binding of serum 6 to linear peptides of protein X2,[3],0.4
same,Binding of serum 6 to looped/cyclic peptides of protein X2 of SARS-CoV Urbani,[3],1.0
same,Binding of serum 37 to linear peptides of protein X2,[3],0.5
same,Binding of serum 37 to looped/cyclic peptides of protein X2 of SARS-CoV Urbani,[3],0.5
same,Binding of serum 62 to linear peptides of protein X2,[3],0.6
same,Binding of serum 62 to looped/cyclic peptides of protein X2 of SARS-CoV Urbani,[3],0.7
same,Binding of serum London to linear peptides of protein X2,[3],0.4
same,Binding of serum London to looped/cyclic peptides of protein X2 of SARS-CoV Urbani,[3],1.0
same,Binding of serum SARS-green to linear peptides of protein X2,[3],0.4
same,Binding of serum SARS-green to looped/cyclic peptides of protein X2 of SARS-CoV Urbani,[3],0.3
same,Binding of serum SARS-yellow to linear peptides of protein X2,[3],0.4
same,Binding of serum SARS-yellow to looped/cyclic peptides of protein X2 of SARS-CoV Urbani,[3],0.5
ACLCKHKKVSTNLCT,Binding of a rabbit serum to linear peptides,[1],0.3
same,Binding of a rabbit serum to looped peptides,[1],0.3
same,Binding of Control Serum Blood-Bank to Looped peptides,[2],0.2
same,Binding of Control serum Blood-bank to linear peptides,[2],0.9
same,Binding of Control serum LUMC to linear peptides,[2],0.8
same,Binding of Control serum LUMC to looped peptides,[2],0.3
same,Binding of serum 1a to looped/cyclic peptides of protein X2 of SARS-CoV Urbani,[3],0.3
same,Binding of serum 1b to looped/cyclic peptides of protein X2 of SARS-CoV Urbani,[3],0.3
same,Binding of serum 2 to looped/cyclic peptides of protein X2 of SARS-CoV Urbani,[3],0.2
same,Binding of serum 6 to looped/cyclic peptides of protein X2 of SARS-CoV Urbani,[3],0.2
same,Binding of serum 37 to looped/cyclic peptides of protein X2 of SARS-CoV Urbani,[3],0.3
same,Binding of serum 62 to looped/cyclic peptides of protein X2 of SARS-CoV Urbani,[3],0.4
same,Binding of serum London to looped/cyclic peptides of protein X2 of SARS-CoV Urbani,[3],0.2
same,Binding of serum SARS-green to looped/cyclic peptides of protein X2 of SARS-CoV Urbani,[3],0.3
same,Binding of serum SARS-yellow to looped/cyclic peptides of protein X2 of SARS-CoV Urbani,[3],0.3
same,"Recognition of the peptide by sera of SARS-CoV infected individuals, and form (linear, looped/cyclic) in which it is recognized",[3],recognized in linear form
IRQEEVQQELYSPLF,Rabbit serum linear peptides,[1],0.4
same,Rabbit serum looped peptides,[1],0.4
same,Binding of Control Serum Blood-Bank to Looped peptides,[2],0.7
same,Binding of Control serum Blood-bank to linear peptides,[2],0.7
same,Binding of Control serum LUMC to linear peptides,[2],0.7
same,Binding of Control serum LUMC to looped peptides,[2],0.9
same,Binding of serum 1a to linear peptides of protein X4 of SARS-CoV Urbani,[3],0.7
same,Binding of serum 1b to linear peptides of protein X4 of SARS-CoV Urbani,[3],0.6
same,Binding of serum 2 to linear peptides of protein X4 of SARS-CoV Urbani,[3],0.5
same,Binding of serum 6 to linear peptides of protein X4 of SARS-CoV Urbani,[3],0.5
same,Binding of serum 37 to linear peptides of protein X4 of SARS-CoV Urbani,[3],0.8
same,Binding of serum 62 to linear peptides of protein X4 of SARS-CoV Urbani,[3],0.8
same,Binding of serum London to linear peptides of protein X4 of SARS-CoV Urbani,[3],0.7
same,Binding of serum SARS-green to linear peptides of protein X4 of SARS-CoV Urbani,[3],0.8
same,Binding of serum SARS-yellow to linear peptides of protein X4 of SARS-CoV Urbani,[3],0.7
same,"Recognition of the peptide by sera of SARS-CoV infected individuals, and form (linear, looped/cyclic) in which it is recognized",[3],recognized in looped/cyclic form
FMRFFTLGSITAQPV,Binding of a rabbit serum to linear peptides,[1],0.3
same,Binding of a rabbit serum to looped peptides,[1],0.4
same,Binding of Control Serum Blood-Bank to Looped peptides,[2],0.6
same,Binding of Control serum Blood-bank to linear peptides,[2],0.7
same,Binding of Control serum LUMC to linear peptides,[2],0.7
same,Binding of Control serum LUMC to looped peptides,[2],0.6
same,Binding of serum 1a to linear peptides of protein X1 of SARS-CoV Urbani,[3],0.8
same,Binding of serum 1a to looped/cyclic peptide (PEPSCAN-ELISA),[3],0.5
same,Binding of serum 1b to linear peptides of protein X1 of SARS-CoV Urbani,[3],0.6
same,Binding of serum 1b to looped/cyclic peptide (PEPSCAN-ELISA),[3],0.3
same,Binding of serum 2 to linear peptides of protein X1 of SARS-CoV Urbani,[3],0.8
same,Binding of serum 2 to looped/cyclic peptide (PEPSCAN-ELISA),[3],0.4
same,Binding of serum 6 to linear peptides of protein X1 of SARS-CoV Urbani,[3],0.5
same,Binding of serum 6 to looped/cyclic peptide (PEPSCAN-ELISA),[3],0.4
same,Binding of serum 37 to linear peptides of protein X1 of SARS-CoV Urbani,[3],0.7
same,Binding of serum 37 to looped/cyclic peptide (PEPSCAN-ELISA),[3],0.5
same,Binding of serum 62 to linear peptides of protein X1 of SARS-CoV Urbani,[3],0.7
same,Binding of serum 62 to looped/cyclic peptide (PEPSCAN-ELISA),[3],0.5
same,Binding of serum London to linear peptides of protein X1 of SARS-CoV Urbani,[3],0.3
same,Binding of serum London to looped/cyclic peptide (PEPSCAN-ELISA),[3],0.2
same,Binding of serum SARS-green to linear peptides of protein X1 of SARS-CoV Urbani,[3],0.3
same,Binding of serum SARS-green to looped/cyclic peptide (PEPSCAN-ELISA),[3],0.2
same,Binding of serum SARS-yellow to linear peptides of protein X1 of SARS-CoV Urbani,[3],0.7
same,Binding of serum SARS-yellow to looped/cyclic peptide (PEPSCAN-ELISA),[3],0.3
KEITVATSRTLSYYK,Rabbit serum linear peptides,[1],0.4
same,Rabbit serum looped peptides,[1],0.5
same,Binding of Control Serum Blood-Bank to Looped peptides of the protein M of SARS-CoV Urbani,[2],0.7
same,Binding of Control serum Blood-bank to linear peptides of the protein M of SARS-CoV Urbani,[2],0.8
same,Binding of Control serum LUMC to linear peptides of the protein M of SARS-CoV Urbani,[2],0.6
same,Binding of Control serum LUMC to looped peptides of the protein M of SARS-CoV Urbani,[2],0.7
same,Binding of serum 1a to linear peptides of protein M of SARS-CoV Urbani,[3],0.7
same,Binding of serum 1a to looped/cyclic peptides of protein M of SARS-CoV Urbani,[3],0.6
same,Binding of serum 1b to linear peptides of protein M of SARS-CoV Urbani,[3],0.6
same,Binding of serum 1b to looped/cyclic peptides of protein M of SARS-CoV Urbani,[3],0.5
same,Binding of serum 2 to linear peptides of protein M of SARS-CoV Urbani,[3],0.6
same,Binding of serum 2 to looped/cyclic peptides of protein M of SARS-CoV Urbani,[3],0.8
same,Binding of serum 6 to linear peptides of protein M of SARS-CoV Urbani,[3],0.0
same,Binding of serum 6 to looped/cyclic peptides of protein M of SARS-CoV Urbani,[3],1.3
same,Binding of serum 37 to linear peptides of protein M of SARS-CoV Urbani,[3],0.5
same,Binding of serum 37 to looped/cyclic peptides of protein M of SARS-CoV Urbani,[3],0.6
same,Binding of serum 62 to linear peptides of protein M of SARS-CoV Urbani,[3],0.6
same,Binding of serum 62 to looped/cyclic peptides of protein M of SARS-CoV Urbani,[3],0.5
same,Binding of serum London to linear peptides of protein M of SARS-CoV Urbani,[3],0.3
same,Binding of serum London to looped/cyclic peptides of protein M of SARS-CoV Urbani,[3],0.4
same,Binding of serum SARS-green to linear peptides of protein M of SARS-CoV Urbani,[3],0.4
same,Binding of serum SARS-green to looped/cyclic peptides of protein M of SARS-CoV Urbani,[3],0.2
same,Binding of serum SARS-yellow to linear peptides of protein M of SARS-CoV Urbani,[3],0.2
same,Binding of serum SARS-yellow to looped/cyclic peptides of protein M of SARS-CoV Urbani,[3],0.5
